Non-standard residues stand in square brackets, D forms with d. Residues, ends and D or L forms follow the SMILES beside them.
Experiments:
[1] = tested on: cancer patients with cachexia; test: Treatment of cachexia in cancer patients (case reports); format: in vivo, human
Method: Patients are typically diagnosed as having cachexia where weight loss of at least 5% in 12 months or less (or BMI<20 kg/m^2), is accompanied by at least three of the following conditions: • Decreased muscle strength • Fatigue • Low fat-free mass index; and • Abnormal blood biochemistry: increased inflammatory markers (CRP, IL-6), anaemia (Hb<12 g/dL) and low serum albumin (<3.2 g/dL)
The peptide was administered by subcutaneous injection every second day for two weeks, in a composition containing the peptide dissolved in 5 ml of a solution comprising water, bicarbonate and either benzyl alcohol or methanol.
The peptide was administered by subcutaneous injection every second day for one month, in a composition containing the peptide dissolved in 5 ml of a solution comprising water, bicarbonate and either benzyl alcohol or methanol
The peptide was administered by subcutaneous injection every second day, in a composition containing the peptide dissolved in 5 ml of a solution comprising water, bicarbonate and either benzyl alcohol or methanol.
The peptide was administered by subcutaneous injection every second day for two months, in a composition containing the peptide dissolved in 5 ml of a solution comprising water, bicarbonate and either benzyl alcohol or methanol.
The peptide was administered by subcutaneous injection every second day for one week, in a composition containing the peptide dissolved in 5 ml of a solution comprising water, bicarbonate and either benzyl alcohol or methanol.
The peptide was administered by subcutaneous injection every second day for one month, in a composition containing the peptide dissolved in 5 ml of a solution comprising water, bicarbonate and either benzyl alcohol or methanol.
The peptide was administered by subcutaneous injection every second day for one month in a composition containing the peptide dissolved in 5 ml of a solution comprising water, bicarbonate and either benzyl alcohol or methanol.

[2] = tested on: IL-1α+IFN-γ induced IL-17 production by HT-29 cells; test: IL-1α+IFN-γ induced IL-17 production by HT-29 cells; format: cell-based, human; settings: 10 ng/ml IL-1α+300 U IFN-γ, peptide 10 ng/ml and 500 ng/ml, stimulated control 13.14±3.92, n=6, p<0.001
Method: (§1) Human colon epithelial cell lines HT-29 and Caco2 obtained from the European Collection of Animal Cell Cultures (ECACC) were used in cell cultures. Cells were routinely cultured at 37° C. in an atmosphere of 5% CO2 in 80 cm^2 tissue culture flasks in McCoy's and DMEM medium, respectively, supplemented with penicillin (10 u/ml), streptomycin (10 μg/ml), fungizone (0.5 μg/ml), and 10% (v/v) FCS (referred to as complete medium) until confluent.
(§2) Confluent monolayers were sub-cultured into 6-well plates for experimental protocols. Cells were grown in 6-well plates until confluent. Twenty-four hours prior to the experiment the confluent monolayers were washed and cultured in FCS-free McCoy's medium. Growth arrested cultures were then treated with fresh FCS-free medium and stimulated with vehicle controls or various doses of IL-1α added alone or in combination with other pro-inflammatory cytokines (TNF-α, IFN-γ) in the presence or absence of the peptide of sequence 4 or IL-1 ra, in a dose and time dependent manner.
Supernatants were collected, centrifuged to remove cellular debris and stored at −70° C. until assayed for extracellular inflammatory mediators. […] Production of soluble mediators was assessed by commercially available ELISA in supernatants, RT-PCR in total RNA extractants and nitric oxide, as described in Kolios, G, et al. (1995). […]

[3] = tested on: IL-1α-induced IL-8 production by HT-29 cells; test: IL-1α induced IL-8 production by HT-29 colonic epithelial cells; format: cell-based, human; settings: 10 ng/ml IL-1α
Method: as §1, §2
Supernatants were collected, centrifuged to remove cellular debris and stored at −70° C. until assayed for extracellular inflammatory mediators. Total RNA for RT-PCR was extracted as described above. Cell counting and viability was routinely checked at the beginning and the end of the experiment by phase microscopy and by trypan blue exclusion using representative wells. Mycoplasma tests were performed during the experimental protocol. Production of soluble mediators was assessed by commercially available ELISA in supernatants, RT-PCR in total RNA extractants and nitric oxide, as described in Kolios, G, et al. (1995). Br J Pharmacol, 116, 2866-2872, the contents of which are incorporated herein by reference.
HT 29 and Caco2 colonic epithelial cell lines were stimulated with 10 ng/ml of IL-la in the presence of 100 or 500 ng/ml of the peptide of sequence 4.

[4] = tested on: thoroughbred having equine laminitis; test: Effect of peptides on equine laminitis (Obel Lameness Grades); format: in vivo, horse
Method: Each of the peptides having the sequences 13, 14, 19 and 4 were also tested to determine their effect on equine laminitis. Each peptide was administered intravenously to a thoroughbred having equine laminitis. The peptides were prepared as compositions containing 1 mg of peptide dissolved in 5 ml of a solution comprising water, bicarbonate and either benzyl alcohol or methanol. The effect of the peptides on equine laminitis was judged by the Obel Lameness Grades, which is a system of rating degrees of lameness resulting from laminitis. […] Obel Grade III horses do resist having a foreleg lifted, and are reluctant to walk. Obel Grade IV horses will walk only if forced. The Obel Score for each of the horses was measured before administration of the peptide and 24 hours after injection of the peptide. […] The effect in reducing laminitis which was caused by one single injection of the peptides on laminitis was short-lived. Therefore, the duration of the effect of the peptides in reducing laminitis was further assessed by attending veterinarians.

[5] = Example 16: breast cancer, 1 mg subcutaneous every second day for one month

SMILES: CC(=O)N[C@H](CC(C)C)C(=O)N1CCC[C@@H]1C(=O)N[C@H](CC(C)C)C(=O)N[C@H](C)C(=O)N[C@H](Cc1ccc(O)cc1)C(=O)N1CCC[C@@H]1C(=O)N[C@H](CCC(N)=O)C(=O)N[C@H](Cc1c[nH]c2ccccc12)C(=O)N[C@H](Cc1ccc(O)cc1)C(=O)NCC(=O)N1CCC[C@@H]1C(=O)N[C@@H](C(=O)N[C@H](Cc1c[nH]c2ccccc12)C(=O)N[C@H](CCC(=O)O)C(=O)N[C@H](Cc1ccccc1)C(=O)O)[C@H](C)O [SEQ ID NO. 4, Ac-LPLAYPQWYGPTWEF] (Ac-[dL][dP][dL][dA][dY][dP][dQ][dW][dY]G[dP][dT][dW][dE][dF]-OH; C-terminus assumed)
- Side effects due to the administration of the peptide ([1]; Example 9: breast cancer, 1 mg subcutaneous every second day for two weeks): No side effects were noted
- Symptoms of cachexia ([1]; Example 9: breast cancer, 1 mg subcutaneous every second day for two weeks, after 24 hours): cachexia symptoms were alleviated
- Symptoms of cachexia ([1]; Example 10: adrenal adenomas, 1 mg subcutaneous every second day for one month): symptoms of cachexia were alleviated
- Symptoms of cachexia ([1]; Example 11: glioblastoma, 1 mg subcutaneous every second day): symptoms of cachexia were alleviated
- Symptoms of cachexia ([1]; Example 12: brain adenoma, 1 mg subcutaneous every second day for two months, two days after commencement): symptoms of cachexia were alleviated
- Symptoms of cachexia ([1]; Example 13: brain glioma, 1 mg subcutaneous every second day for one week): symptoms of cachexia were alleviated
- Symptoms of cachexia ([1]; Example 14: ovarian cancer, 1 mg subcutaneous every second day for one month): symptoms of cachexia were also alleviated
- Symptoms of cachexia ([1]; Example 15: bone cancer, 1 mg subcutaneous every second day for one month): symptoms of cachexia were alleviated
- Symptoms of cachexia [1, 5]: symptoms of cachexia were also alleviated
- Weight put on [1, 5]: 5 kg
- Symptoms of cachexia ([1]; Example 17: breast cancer, 1 mg subcutaneous every second day for two weeks): symptoms of cachexia were alleviated
- Symptoms of cachexia ([1]; Example 18: bladder cancer, 1 mg subcutaneous every second day for one month, after 24 from commencement): symptoms of cachexia were alleviated
- Symptoms of cachexia ([1]; Example 19: colon cancer, 1 mg subcutaneous every second day for one month): symptoms of cachexia were largely alleviated
- Symptoms of cachexia ([1]; Example 20: colon cancer, 1 mg subcutaneous every second day for one month, one month after commencement): symptoms of cachexia had been treated
- Symptoms of cachexia ([1]; Example 21: glioblastoma, 1 mg subcutaneous every second day for one month, two days after commencement): cachexia started to diminish
- Symptoms of cachexia ([1]; Example 22: glioblastoma, 1 mg subcutaneous every second day, after 24 hours): symptoms of cachexia had been alleviated
- Symptoms of cachexia ([1]; Example 23: Hodgkin's lymphoma, 1 mg subcutaneous every second day for one month, after three weeks): symptoms of cachexia were alleviated
- Weight gained ([1]; Example 24: colon cancer, 1 mg subcutaneous every second day): ~5 kg
- Symptoms of cachexia ([1]; Example 24: colon cancer, 1 mg subcutaneous every second day, after two weeks): symptoms of cachexia were alleviated
- Symptoms of cachexia ([1]; Example 25: non-Hodgkin's lymphoma, 1 mg subcutaneous every second day, after 4 days): symptoms of cachexia were alleviated
- Symptoms of cachexia ([1]; Example 26: pancreatic cancer, 1 mg subcutaneous every second day, after 7 days): symptoms of cachexia were alleviated
- Symptoms of cachexia ([1]; Example 27: liposarcoma, 1 mg subcutaneous every second day, after 3 days): symptoms of cachexia were alleviated
- Symptoms of cachexia ([1]; Example 28: liver cancer, 1 mg subcutaneous every second day, after one week): symptoms of cachexia were largely alleviated
- IL-1α+IFN-γ-induced IL-17 production [2]: 4.97±0.84 pg/ml per 106 cells
- IL-1α-induced IL-8 production ([3]; peptide 500 ng/ml, IL-1α alone 67.455±0.125, n=6, p<0.01): 40.705±2.56 ng/ml per 106 cells
- Effect on IL-1α-induced IL-8 production ([3]; peptide 100 or 500 ng/ml, FIG. 1): reduced IL-1α-induced IL-8 production in a concentration dependent manner
- Change in Obel Score ([4]; 1 mg intravenously, before vs 24 hours after injection, most negative = greatest improvement): −2.9
- Duration (days) of effect on laminitis ([4]; single 1 mg intravenous, averaged, report by veterinarians): 4 days
